Some results are limits rather than exact numbers.

The results in this text go back to patent US4798807A, “Monoclonal antibodies and method for detecting dioxins and dibenzofurans” (priority 1986, dated 1989).

For test [1], the target named is monoclonal antibody DD-1. Kind of test: Competition ELISA with monoclonal antibody DD-1. The following applies: for I50 (inhibits antibody binding by 50%): competitor vs monoclonal antibody DD-1, plate coated with A-triCDD-RSA. Type of test: binding, Biozzi mice. As for the experimental part:
(§1) In this case the hybridomas were then screened for their ability to distinguish A-triCDD-BSA and A-triCDD-RSA from BSA and RSA. On the basis of this initial screen about 25 stable, antibody-producing colonies were isolated, subcloned, and frozen. The remaining clones were again screened for their abilities to recognize free TCDD in suspension. Experimentally, on the order of 10-100 nanograms of TCDD in hexane was dried, 0.5 ml of saline with BSA (1 mg/ml) was added and sonificated for 2 hrs. […] Identical procedures were followed for other dioxin isomers. A dilution series in microtiter plate wells was then made with the suspended TCDD, antibody adde, and the competition ELISA completed. Competition ELISA test procedures are discussed in detail in the following reference: Butt, W. R. (1984) "Practical Immunoassay: The State of the Art", Marcel Dekker, Inc., N.Y., N.Y.
(§2) A large part of the success that we have had in characterizing the binding specificities of our monoclonal antibodies comes from having developed a reliable competition ELISA protocol. Our preferred assay starts from stock solutions at 10 ppm in hexane of the various compounds listed in Table I. 10 μl of hexane solution is aliquoted into a small vial, evaporated under a stream of nitrogen gas, and 500 μl of a 1 mg/ml solution of BSA in phosphate buffered saline with 0.1% BSA is added. The vial is capped and placed in an ultrasonic cleaning waterbath for two hours. Two hours of sonification gives a more reproducible assay than does an hour. During the sonification, the hexane appears to evaporate completely, and one is left with an aqueous solution containing the dioxin. Microtiter plates coated with A-triCDD-RSA are blocked with a three percent solution of ovalbumin and a two-fold dilution series of sonificated dioxin-BSA is then made, covering the range 100 ppb-0.1 ppb. In each well of the plate 100 μl of the sonificated dioxin-BSA solution is mixed with n equal volume of antibody. The antibody partitions between the dioxin adsorbed to the BSA, and the A-tri-CDD-RSA on the plate.
(§3) A-TriCDD-RSA was adsorbed onto the surface of the wells of a microtiter plate. The various competitors listed were suspended in saline containing bovine serum albumin (BSA). These solutions were made by sonificating 10 μl of dioxin solution in hexane with 500 μl of saline-BSA. A dilution series of these dioxin-BSA solutions was then made covering the range of 100-0.2 ppb, and placed in the microtiter plate wells. An equal volume of DD-1 monoclonal antibody was then added, and allowed to react for 1 hour. Tne antibody binds either to the A-TriCDD-RSA on the plate or the dioxin in solution. After the hour, the solution phase is removed, the plate washed, and it is reincubated for an hour with peroxidase-conjugated goat-anti-mouse-immunoglobulins. A second washing is then done, and substrate (ABTS) added to the peroxidase. The enzyme-antibody conjugate and substrate function as a "developer", allowing the visualization of the DD-1 bound to the A-triCDD-RSA on the plate. Results are then expressed as a fraction of the response in wells with no competitor. […] At about 20 ppb of 2,3,7,8-TCDD the relative ELISA response is half of control, meaning that half the DD-1 antibody bound to the solution phase dioxin and half bound to the A-triCDD-RSA on the plate. For 1,2,3,7(8)-TCDD, 50% inhibition occurs at about 4 ppb, indicating the DD-1 prefers 1,2,3,7(8)-TCDD to 2,3,7,8-TCDD.
(§4) The FIGURE and Table II show representative competition data using several chlorinated compounds as competitors. From such data, one can determine the concentration required to inhibit antibody binding by 50% (I50). Table II lists the I50 for all compounds tested with the antibodies. In reporting these values, factors of two are about the limit of significance. […] The binding specificities of these antibodies are highly desirable, since they prefer the most toxic of the dioxin and dibenzofuran isomers.
(In an ELISA, binding on a coated surface is turned into a signal by an enzyme label.)

Test [2] has as its target monoclonal antibody DD-3. Kind of test: Competition ELISA with monoclonal antibody DD-3. Format: binding, BALB/c mice. The following applies: competitor vs monoclonal antibody DD-3; plate coated with A-triCDD-RSA. As for the experimental part:
as §1, §2, §3, §4

The target of test [3] is monoclonal antibody DD-4. Kind of test: Competition ELISA with monoclonal antibody DD-4. The following applies: for I50 (inhibits antibody binding by 50%): competitor vs monoclonal antibody DD-4, plate coated with A-triCDD-RSA. Format: binding, BALB/c mice. How it is done: as §1, §2, §3, §4
Test [4] deals with monoclonal antibody DD-5. Kind of test: Competition ELISA with monoclonal antibody DD-5. Format: binding, Biozzi mice. The following applies: competitor vs monoclonal antibody DD-5; plate coated with A-triCDD-RSA. How it is done:
as §1, §2, §3, §4

Test [5] concerns the target monoclonal antibody DD-6. Kind of test: Competition ELISA with monoclonal antibody DD-6. Type of test: binding, Biozzi mice. The following applies: competitor vs monoclonal antibody DD-6; plate coated with A-triCDD-RSA. How it is done:
as §1, §2, §3, §4

Test [6] concerns monoclonal antibodies DD-1, DD-3, DD-4, DD-5 and DD-6. Kind of test: Competition ELISA, statements for all antibodies together. Format: binding, BALB/c and Biozzi mice. As for the experimental part: as §1, §2, §3, §4

On to `Clc1ccc2oc3c(Cl)c(Cl)c(Cl)c(Cl)c3c2c1Cl` [1,2,3,4,8,9-Hexa-CDBF], for which the “I50 (inhibits antibody binding by 50%)” value in test [1] is over 200 ng; in test [2] it was over 200 ng; in test [3], over 200 ng; in test [4], over 10 ng; in test [5], over 150 ng. Further, in test [6] (up to the highest concentration tested (100 ppb)), the “reactivity of all antibodies with competitor” value was “either do not react or react only marginally”.
Regarding `O=C1C2(Cl)C3(Cl)C4(Cl)C(Cl)(Cl)C5(Cl)C3(Cl)C1(Cl)C5(Cl)C24Cl` (stereo not shown) [Kepon], the “I50 (inhibits antibody binding by 50%)” value in test [1], in test [2], in test [3], in test [4] and in test [5] was over 2000 ng each time.
Take `Clc1ccc(C(c2ccc(Cl)cc2)C(Cl)(Cl)Cl)cc1` [DDT]: the “I50 (inhibits antibody binding by 50%)” value in test [1], in test [2], in test [3], in test [4] and in test [5] was over 2000 ng throughout.
Consider `Clc1ccc(Cl)c(-c2c(Cl)c(Cl)c(Cl)c(Cl)c2Cl)c1Cl` [2,2',3,3',4,5,6,6'-Octa-CBP], for which the “I50 (inhibits antibody binding by 50%)” value in test [1] is given as over 200 ng; in test [2], over 200 ng; in test [3] it was over 200 ng; in test [4] it was over 10 ng; in test [5] it was over 200 ng.
Consider `ClC1=C(Cl)C2(Cl)C3C4C=CC(C4)C3C1(Cl)C2(Cl)Cl` (stereo not shown) [Aldrin], for which the “I50 (inhibits antibody binding by 50%)” value in test [1], in test [2], in test [3], in test [4] and in test [5] was over 2000 ng in each case.
As to `O=S1OCC2C(CO1)C1(Cl)C(Cl)=C(Cl)C2(Cl)C1(Cl)Cl` (stereo not shown) [Endosulfan], the “I50 (inhibits antibody binding by 50%)” value in test [1], in test [2], in test [3], in test [4] and in test [5] was over 2000 ng throughout.
Turning to `O=C(O)COc1cc(Cl)c(Cl)cc1Cl` [2,4,5-Trichlorophenoxyacet, 2,4,5-Trichloro-phenoxyacet], the “I50 (inhibits antibody binding by 50%)” value is on record as 2000 ng in test [1]; over 2000 ng in test [2]; over 2000 ng in test [3]; over 2000 ng in test [4]; 2700 ng in test [5].
In the case of `Oc1c(Cl)c(Cl)c(Cl)c(Cl)c1Cl` [Pentachlorophenol], the “I50 (inhibits antibody binding by 50%)” value in test [1], in test [2], in test [3], in test [4] and in test [5] was over 2000 ng throughout.
Regarding `Oc1cc(Cl)c(Cl)cc1O` [4,5-Dichlorocatechol], the “I50 (inhibits antibody binding by 50%)” value in test [1] is on record as 2000 ng; in test [2], over 2000 ng; in test [3], over 2000 ng; in test [4] it was over 2000 ng; in test [5], over 2000 ng.
`Clc1cc(Cl)c2c(c1)Oc1cc(Cl)c(Cl)cc1O2` [1,3,7,8-TCDD]: the “I50 (inhibits antibody binding by 50%)” value is 0.2 ng in test [1], 0.15 ng in test [2], over 2 ng in test [3] and 1 ng in test [5]. In addition, the “affinity / recognition by all antibodies” value in test [6] (all antibodies) is listed as “highest affinity”.
For the compound `Oc1ccc(Cl)cc1Cl` [2,4-Dichlorophenol], the “I50 (inhibits antibody binding by 50%)” value is recorded as 2000 ng in test [1]; over 2000 ng in test [2]; over 2000 ng in test [3]; over 2000 ng in test [4]; over 2000 ng in test [5].
Regarding `ClC1=C(Cl)C2(Cl)C3C(Cl)C=CC3C1(Cl)C2(Cl)Cl` (stereo not shown) [Heptachlor], the “I50 (inhibits antibody binding by 50%)” value in test [1], in test [2], in test [3], in test [4] and in test [5] was over 2000 ng each time.
For `Clc1cc(-c2cc(Cl)c(Cl)c(Cl)c2Cl)c(Cl)c(Cl)c1Cl` [2,2',3,3',4,4',5,5'-Octa-CBP], the “I50 (inhibits antibody binding by 50%)” value is on record as over 200 ng in test [1]; over 200 ng in test [2]; over 200 ng in test [3]; over 10 ng in test [4]; over 200 ng in test [5].
Consider `O=[N+]([O-])c1cc(Cl)cc(Cl)c1O` [2,4-Dichloro-6-nitrophenol, 2,4-Dichloro-6-nitro-phenol], for which the “I50 (inhibits antibody binding by 50%)” value in test [1], in test [2], in test [3], in test [4] and in test [5] was over 2000 ng in each case.
Take 1,2,3,6(7),7(8),8(9)-hexa-CD[: the “I50 (inhibits antibody binding by 50%)” value in test [1] is recorded as over 200 ng; in test [2], over 200 ng; in test [3], over 200 ng; in test [4], over 10 ng; in test [5], over 200 ng. The “reactivity of DD-4 with competitor” value in test [3] (DD-4) is “some reactivity”.
With `Clc1ccc(Cl)c(-c2c(Cl)c(Cl)c(Cl)c(Cl)c2Cl)c1` [2,2',3,4,5,5',6-Hepta-CBP], the “I50 (inhibits antibody binding by 50%)” value in test [1] is on record as over 200 ng; in test [2], over 200 ng; in test [3], over 200 ng; in test [4], over 10 ng; in test [5], over 200 ng.
Turning to 1,2,3,7,(8)-TCDD, the “concentration at which 50% inhibition occurs (relative ELISA response half of control)” value in test [1] (FIGURE, DD-1, competitor in saline-BSA, dilution series 100-0.2 ppb) is “about 4 ppb”. The “I50 (inhibits antibody binding by 50%)” value in test [1] is 0.15 ng; in test [2], 0.45 ng; in test [3], 0.3 ng; in test [4] it was 0.3 ng; in test [5], 0.15 ng.
